Measured values reported in article PMC13250552 (Proceedings of the National Academy of Sciences of the …, 2026).

Legend:
RPE-1 cells = type: cell-based; details: p53 wild-type, HPV-negative
SiHa cells [1] = type: cell-based; details: 24 hours
UM-SCC-104 = experiment: Immunoblot of p53 and p21 in UM-SCC-104 cells; type: cell-based, human; details: 24 hours
C51S cells = type: cell-based; details: 48 h, KTI-240 3 μM, etoposide 2 μM
SiHa-C51S cells = type: cell-based; details: 24 hours
SiHa cells [2] = experiment: Senescence SA-β-gal assay, SiHa; type: cell-based, human; details: 48 h, KTI-240 3 μM, etoposide 2 μM

Q: How did the “p53 protein levels (Western blot)” value (RPE-1 cells) turn out when `COc1cc([C@@H]2c3cc4c(cc3[C@@H](O[C@@H]3O[C@@H]5CO[C@@H](C)O[C@H]5[C@H](O)[C@H]3O)[C@H]3COC(=O)[C@H]23)OCO4)cc(OC)c1O` [etoposide] was run?
A: Its value is “induced p53 in both cell lines”.

Q: And the “p53 protein levels (Western blot)” value (SiHa cells [1])?
A: The value was “induced p53 in both cell lines”.

Q: And the “p53 protein (immunoblot)” value (UM-SCC-104)?
A: The value was “did not induce p53”.

Q: And the SA-β-gal senescence marker (C51S cells)?
A: Its SA-β-gal senescence marker is “induced”.

Q: And the “p53 protein levels (Western blot)” value (SiHa-C51S cells)?
A: The value was “etoposide did”.

Q: And the SA-β-gal senescence marker (SiHa cells [2])?
A: Its SA-β-gal senescence marker is “induced”.
